Results: patent US20230174485A1, “LIPOXYGENASE INHIBITORS” (SRI International, priority 2020, published 2023)
Values joined by “and” are separate entries in the source; they are usually repeats but may differ in a detail not shown here. Equal entries are not always repeated. Structures can show the parent of a compound that is named as a salt. Where two headings read alike, the source gives them in different places.

Tests used:
Assay type in all cases: biochemical
[1] = target: T1, recombinant 12-LOX enzyme (Homo sapiens, UniProt P18054); assay: 12-LOX fluorescent assay; conditions: several values in one cell = repeat determinations; read-out: IC50 (μM) values for in vitro lipoxygenase inhibition, 12-LOX
T1 sequence (P18054 1-663): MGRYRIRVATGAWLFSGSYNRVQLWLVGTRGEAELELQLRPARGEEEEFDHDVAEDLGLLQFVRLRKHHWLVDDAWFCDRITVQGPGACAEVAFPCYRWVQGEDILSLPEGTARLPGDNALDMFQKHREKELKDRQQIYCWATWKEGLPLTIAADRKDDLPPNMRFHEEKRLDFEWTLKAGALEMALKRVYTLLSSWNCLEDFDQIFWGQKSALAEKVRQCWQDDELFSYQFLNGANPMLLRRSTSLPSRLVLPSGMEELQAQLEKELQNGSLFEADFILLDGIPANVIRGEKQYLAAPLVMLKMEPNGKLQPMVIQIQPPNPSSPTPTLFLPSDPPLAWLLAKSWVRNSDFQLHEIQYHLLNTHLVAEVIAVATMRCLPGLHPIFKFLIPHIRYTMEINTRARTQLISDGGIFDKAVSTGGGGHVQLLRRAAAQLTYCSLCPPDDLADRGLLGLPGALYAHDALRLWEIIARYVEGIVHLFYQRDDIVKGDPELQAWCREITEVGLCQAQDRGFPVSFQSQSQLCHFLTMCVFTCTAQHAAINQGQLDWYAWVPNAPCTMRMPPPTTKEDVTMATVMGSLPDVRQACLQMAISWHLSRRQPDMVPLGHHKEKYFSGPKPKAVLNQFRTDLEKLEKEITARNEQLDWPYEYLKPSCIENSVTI
Method in brief: (§1)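 Compounds pre-incubated 15 min with 100 nM 12-LOX or 50 nM 15-LOX in 50 mM Tris pH 7.5, 0.05% Tween-20; reaction started with 20 μM AA/LA plus 1 μM DHR123.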

[2] = target: T2, recombinant 5-LOX (Homo sapiens, UniProt P09917); assay: 5-LOX fluorescent assay; conditions: several values in one cell = repeat determinations; read-out: IC50 (μM) values for in vitro lipoxygenase inhibition, 5-LOX
T2 sequence (P09917 1-674): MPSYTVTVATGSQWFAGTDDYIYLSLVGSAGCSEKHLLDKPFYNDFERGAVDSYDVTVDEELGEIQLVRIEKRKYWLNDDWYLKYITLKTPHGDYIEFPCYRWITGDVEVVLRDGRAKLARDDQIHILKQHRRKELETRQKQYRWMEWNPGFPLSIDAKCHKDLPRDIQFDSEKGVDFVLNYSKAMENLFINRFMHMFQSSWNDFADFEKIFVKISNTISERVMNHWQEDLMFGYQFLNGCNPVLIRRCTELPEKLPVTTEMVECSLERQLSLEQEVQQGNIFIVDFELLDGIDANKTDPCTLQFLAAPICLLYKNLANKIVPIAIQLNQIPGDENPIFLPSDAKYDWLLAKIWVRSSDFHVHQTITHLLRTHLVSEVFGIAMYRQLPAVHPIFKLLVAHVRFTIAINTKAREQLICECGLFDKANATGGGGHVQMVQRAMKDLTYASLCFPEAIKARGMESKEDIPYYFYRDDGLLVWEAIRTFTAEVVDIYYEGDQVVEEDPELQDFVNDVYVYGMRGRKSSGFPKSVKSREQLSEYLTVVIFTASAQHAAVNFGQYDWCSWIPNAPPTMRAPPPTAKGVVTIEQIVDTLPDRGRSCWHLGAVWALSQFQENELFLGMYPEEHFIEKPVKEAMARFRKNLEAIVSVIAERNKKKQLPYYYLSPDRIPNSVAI
Method in brief: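 Lysate containing recombinant 5-LOX was pre-incubated 15 min with compounds in 50 mM Tris pH 7.5, 0.1 mM EDTA, 0.3 mM CaCl2. The reaction was started with 20 μM arachidonic acid, 100 μM ATP and 1 μM DHR123.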

[3] = target: T3, recombinant 15-LOX enzyme (Homo sapiens, UniProt P16050); assay: 15-LOX fluorescent assay; conditions: several values in one cell = repeat determinations
T3 sequence (P16050 1-662): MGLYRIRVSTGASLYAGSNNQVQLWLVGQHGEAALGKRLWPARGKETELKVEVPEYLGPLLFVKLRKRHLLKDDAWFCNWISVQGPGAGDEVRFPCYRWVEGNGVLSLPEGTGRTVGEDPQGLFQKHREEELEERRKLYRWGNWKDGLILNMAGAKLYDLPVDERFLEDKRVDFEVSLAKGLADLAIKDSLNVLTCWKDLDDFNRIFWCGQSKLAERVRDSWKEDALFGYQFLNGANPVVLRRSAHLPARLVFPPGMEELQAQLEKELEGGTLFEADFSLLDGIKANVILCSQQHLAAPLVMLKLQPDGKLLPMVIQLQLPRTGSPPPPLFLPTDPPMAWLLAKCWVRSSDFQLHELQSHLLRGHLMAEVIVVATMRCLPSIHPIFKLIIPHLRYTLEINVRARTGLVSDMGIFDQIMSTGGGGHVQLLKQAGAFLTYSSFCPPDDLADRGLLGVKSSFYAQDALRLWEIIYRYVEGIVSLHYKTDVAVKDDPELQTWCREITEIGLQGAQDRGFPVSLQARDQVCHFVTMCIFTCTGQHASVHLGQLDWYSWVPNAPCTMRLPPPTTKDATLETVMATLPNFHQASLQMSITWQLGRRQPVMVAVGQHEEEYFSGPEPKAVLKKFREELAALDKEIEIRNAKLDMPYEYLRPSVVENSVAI
Method in brief: as §1

[4] = read-out: IC50 (μM) values for in vitro lipoxygenase inhibition, 15-LOX
[5] = IC50 (μM) values for in vitro lipoxygenase inhibition, 15-LOX

SMILES	IC50 [1]	IC50 [2]	IC50 [3, 4]	IC50 [3, 5]
CN(C)CCOc1c2[nH]c3ccccc3c2cc2[nH]c3ccccc3c12 [SS20308-0065-01, 2-(5,11-dihydroindolo[3,2-b]carbazol-6-yloxy)-N,N-dimethylethanamine]	0.02 µM and 0.06 µM	0.01 µM and 0.04 µM	0.03 µM	
CN(C)CCOc1c(-c2ccccc2N)ccc2c1[nH]c1ccccc12 [SS20308-0073-01, 2-(1-(2-(dimethylamino)ethoxy)-9H-carbazol-2-yl)aniline dihydrochloride]	49.2 µM	14.4 µM		26.1 µM
CN(C)CCOc1c(N)cc(Cl)c2c1[nH]c1ccc(F)cc12 [SS20308-0069-01, 4-chloro-1-(2-(dimethylamino)ethoxy)-6-fluoro-9H-carbazol-2-amine]	7.93 µM	14.8 µM	8.34 µM	
CN(C)CCCn1c2c(c3ccccc31)CC(Nc1ccccc1)CC2 (stereo not drawn) [SS20308-0159-01, 9-(3-(dimethylamino)propyl)-N-phenyl-2,3,4,9-tetrahydro-1H-carbazol-3-amine]	2.75 µM	1.85 µM	1.59 µM	
CN(C)CCOc1c(NCc2ccccc2)ccc2c1[nH]c1ccc(F)cc12 [SS20308-0036-01, N-benzyl-1-(2-(dimethylamino)ethoxy)-6-fluoro-9H-carbazol-2-amine]	0.4 µM	0.35 µM	0.8 µM	
Cc1c2[nH]c3ccccc3c2c(CCCN(C)C)c2[nH]c3ccccc3c12 [SS20308-0100-01, N,N-dimethyl-3-(12-methyl-5,11-dihydroindolo[3,2-b]carbazol-6-yl)propan-1-amine]	> 100 µM	> 100 µM	> 100 µM	
c1ccc(-c2cc(NCCCn3cncn3)cc3c2[nH]c2ccccc23)cc1 [SS20308-0111-01, N-(3-(1H-1,2,4-triazol-1-yl)propyl)-1-phenyl-9H-carbazol-3-amine]	44.9 µM	20.3 µM	0.09 µM	
c1ccc(-c2cc3c([nH]c4ccccc43)c(OCCn3cncn3)n2)cc1 [SS20308-0018-01]	4.07 µM	47 µM		1.39 µM
CN(C)CCOc1c(NCc2ccccc2)ccc2c1[nH]c1ncccc12 [SS20308-0047-01, N-benzyl-8-(2-(dimethylamino)ethoxy)-9H-pyrido[2,3-b]indol-7-amine]	0.36 µM and 0.49 µM	0.36 µM and 0.82 µM		1.13 µM and 1.93 µM
CN(C)CCOc1c(Nc2ccccc2)ccc2c1[nH]c1ccc(F)cc12 [SS20308-0032-01, 1-(2-(dimethylamino)ethoxy)-6-fluoro-N-phenyl-9H-carbazol-2-amine]	0.21 µM	0.27 µM	15.9 µM	
CN(C)CCOc1cc2c(cc1CNc1ccccc1)[nH]c1ccccc12 [SS20308-0119-01, N-((3-(2-(dimethylamino)ethoxy)-9H-carbazol-2-yl)methyl)aniline]	0.83 µM	1.04 µM	0.71 µM	
c1ccc2c(c1)CCc1cc(C3CCCCC3)c(NCCn3cncn3)cc1N2 [SS20308-0271-01, N-(2-(1H-1,2,4-triazol-1-yl)ethyl)-2-cyclohexyl-10,11-dihydro-5H-dibenzo[b,f]azepin-3-amine]	0.11 µM and 0.12 µM	0.15 µM and 0.17 µM	0.28 µM and 0.32 µM	
CN(C)CCOc1c2[nH]c3ccc(F)cc3c2c(F)c2[nH]c3ccc(F)cc3c12 [SS20308-0101-01, N,N-dimethyl-2-(2,8,12-trifluoro-5,11-dihydroindolo[3,2-b]carbazol-6-yloxy) ethanamine]	0.08 µM and 0.1 µM and 0.12 µM	0.07 µM and 0.05 µM and 0.04 µM	40 nM (2×) and 70 nM	
CN(C)CCCc1cc(-c2cccc3c2NCC3)cc2[nH]c3ccccc3c12 [SS20308-0170-01, 3-(2-(indolin-7-yl)-9H-carbazol-4-yl)-N,N-dimethylpropan-1-amine]	2.17 µM	4.38 µM	1.53 µM	
Fc1c(NCC2(Cn3cncn3)COC2)ccc2[nH]c3ccccc3c12 [SS20308-0312-01, N-((3-((1H-1,2,4-triazol-1-yl)methyl)oxetan-3-yl)methyl)-4-fluoro-9H-carbazol-3-amine]	0.03 µM	0.09 µM	0.15 µM	
CN(C)CCOc1ccc(Cl)c2c1-c1[nH]c3ccc(F)cc3c1CS2 [SS20308-0093-01, 2-(4-chloro-8-fluoro-6,11-dihydrothiochromeno[4,3-b]indol-1-yloxy)-N,N-dimethylethanamine]	1.69 µM	1.46 µM	2.37 µM	
c1ccc2c(c1)CCc1cc(C3CC3)c(NCCn3cncn3)cc1N2 [SS20308-0269-01, N-(2-(1H-1,2,4-triazol-1-yl)ethyl)-2-cyclopropyl-10,11-dihydro-5H-dibenzo[b,f]azepin-3-amine]	0.11 µM	0.55 µM	0.55 µM	
